In ChEMBL document CHEMBL1145114, “The combi-targeting concept: chemical dissection of the dual targeting properties of a series of "combi-triazenes"” (J Med Chem, 2003):

Key:
A-431 = assay: In vitro inhibition of A431 (human carcinoma) cell basal growth.; type: functional, cell-based
[1] = target: Epidermal growth factor receptor (Homo sapiens, UniProt P00533); assay: In vitro inhibition of Epidermal growth factor receptor tyrosine kinase isolated from A431 (human carcinoma).
NIH3T3 [2] = assay: cells; conditions: Mus musculus
Description: Selective inhibition of serum stimulated growth of NIH3T3neu isogenic cells

NIH3T3 [3] = assay: cells; conditions: Mus musculus; remark: listed apart in the source
Description: Selective inhibition of serum stimulated growth of NIH3T3 isogenic cells

Chain of Epidermal growth factor receptor (P00533 whole entry): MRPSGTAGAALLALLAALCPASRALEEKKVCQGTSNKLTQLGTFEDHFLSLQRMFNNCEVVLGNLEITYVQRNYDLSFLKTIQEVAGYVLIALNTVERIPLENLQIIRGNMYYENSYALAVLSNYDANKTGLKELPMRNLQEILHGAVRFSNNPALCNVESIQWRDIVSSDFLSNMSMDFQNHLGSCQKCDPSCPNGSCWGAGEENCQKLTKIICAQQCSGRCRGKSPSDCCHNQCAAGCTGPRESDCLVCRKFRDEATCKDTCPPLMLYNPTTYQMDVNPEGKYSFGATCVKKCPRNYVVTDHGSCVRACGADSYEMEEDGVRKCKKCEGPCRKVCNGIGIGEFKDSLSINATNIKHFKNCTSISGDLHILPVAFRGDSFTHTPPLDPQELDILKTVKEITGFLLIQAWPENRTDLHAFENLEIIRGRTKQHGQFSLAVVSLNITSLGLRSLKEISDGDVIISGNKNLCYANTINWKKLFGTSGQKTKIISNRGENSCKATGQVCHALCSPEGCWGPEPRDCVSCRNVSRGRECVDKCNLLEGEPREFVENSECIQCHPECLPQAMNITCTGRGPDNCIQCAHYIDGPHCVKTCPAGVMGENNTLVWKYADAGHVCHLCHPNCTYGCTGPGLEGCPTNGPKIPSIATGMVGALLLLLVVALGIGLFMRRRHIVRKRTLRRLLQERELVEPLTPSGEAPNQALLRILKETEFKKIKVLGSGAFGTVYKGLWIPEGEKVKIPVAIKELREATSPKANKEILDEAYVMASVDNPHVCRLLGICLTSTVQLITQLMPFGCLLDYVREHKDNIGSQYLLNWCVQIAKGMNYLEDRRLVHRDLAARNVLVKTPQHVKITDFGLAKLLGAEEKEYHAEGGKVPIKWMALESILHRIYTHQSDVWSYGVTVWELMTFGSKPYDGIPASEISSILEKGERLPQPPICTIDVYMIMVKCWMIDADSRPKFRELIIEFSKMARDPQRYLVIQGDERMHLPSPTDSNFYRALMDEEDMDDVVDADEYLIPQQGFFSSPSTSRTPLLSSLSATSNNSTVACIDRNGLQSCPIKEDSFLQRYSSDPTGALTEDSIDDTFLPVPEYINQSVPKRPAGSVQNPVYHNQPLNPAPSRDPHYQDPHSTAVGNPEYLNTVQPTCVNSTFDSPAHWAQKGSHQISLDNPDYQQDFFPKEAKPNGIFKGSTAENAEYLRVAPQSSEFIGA

Row | IC50 (A-431) | IC50 [1] | Structure (SMILES) | IC50 (NIH3T3 [2]) | IC50 (NIH3T3 [3])
1 | 16.7 µM |  | C/N=N/Nc1ccc2ncnc(Nc3cccc(Cl)c3)c2c1 | 4.16 µM | 32.1 µM
2 | 89.5 µM | 8 µM | CN=NNc1ccc2ncnc(N(C)c3ccccc3)c2c1 | 81 µM | 30.5 µM
3 | 116 µM | 8.4 µM | CN(c1ccccc1)c1ncnc2ccc(N)cc12 | 99.4 µM | 71.4 µM
4 | 40 µM |  | COCC/N=N/Nc1ccc2ncnc(Nc3cccc(Br)c3)c2c1 | 2.98 µM | 42.9 µM
5 | 50.3 µM | 0.482 µM | CN(C)/N=N/c1ccc2ncnc(NCc3ccccc3)c2c1 | 33.9 µM | 67.3 µM
6 | 23.2 µM |  | C/N=N/Nc1ccc2ncnc(Nc3cccc(C)c3)c2c1 | 9.69 µM | 68.3 µM
7 | 12.4 µM | 0.038 µM | CN(C)CCN=NNc1ccc2ncnc(Nc3cccc(Br)c3)c2c1 | 3.4 µM | 16.7 µM
8 | 16 µM |  | C/N=N/Nc1ccc2ncnc(Nc3cccc(Br)c3)c2c1 | 4.32 µM | 33 µM
9 | 25.1 µM | 9.3 µM | CN(c1ccccc1)c1ncnc2ccc(NN=NCc3ccccn3)cc12 | 64.1 µM | 39.4 µM
10 | 20 µM | 0.335 µM | CN=NNc1ccc2ncnc(NCc3ccccc3)c2c1 | 34.9 µM | 50.3 µM
11 | 25 µM | 0.508 µM | Nc1ccc2ncnc(NCc3ccccc3)c2c1 | 33.8 µM | 96.7 µM

The next lines start with the molecule.

Row | Structure (SMILES) | IC50 (A-431) | IC50 [1] | IC50 (NIH3T3 [2]) | IC50 (NIH3T3 [3])
12 | Cc1cccc(Nc2ncnc3ccc(/N=N/N(C)C)cc23)c1 | 94 µM | 0.024 µM | 6.94 µM | 50.8 µM
13 | CN(C)/N=N/c1ccc2ncnc(Nc3cccc(Br)c3)c2c1 | 100 µM | 0.011 µM | 3.74 µM | 52.5 µM
14 | CN(C)/N=N/c1ccc2ncnc(Nc3cccc(Cl)c3)c2c1 | 100 µM | 0.014 µM | 3.09 µM | 60.4 µM
15 | Brc1cccc(Nc2ncnc3ccc(N/N=N/CCN4CCOCC4)cc23)c1 | 33 µM | 0.064 µM | 2.92 µM | 22.2 µM
16 | Brc1cccc(Nc2ncnc3ccc(NN=NCc4ccccn4)cc23)c1 | 11.4 µM | 0.238 µM | 4.06 µM | 30.6 µM
17 | Cc1cccc(Nc2ncnc3ccc(N)cc23)c1 | 65 µM |  | 7.2 µM | 90 µM
18 | CN(C)/N=N/c1ccc2ncnc(N(C)c3ccccc3)c2c1 | 29.8 µM | 13.3 µM | 31.6 µM | 47 µM
19 | Brc1cccc(Nc2ncnc3ccc(NN=NCc4ccccc4)cc23)c1 | 20 µM | 0.025 µM | 11.2 µM | 60.2 µM
20 | Nc1ccc2ncnc(Nc3cccc(Br)c3)c2c1 | 45 µM |  | 4.1 µM | 52.9 µM
